Where two headings read alike, the source gives them in different places. Where no end group is shown, it is not given here.

The text below walks through data of paper PMC8880714, “Antimicrobial effect and mechanism of bovine lactoferrin against the potato common scab pathogen Streptomyces scabiei” (PLoS ONE, 2022).

One data set has as its system Streptomyces scabiei S58. Kind of data set: microbe, parasite or virus in culture. The data set is classed as cell-based. How it is done: S. scabiei S58, isolated from potatoes grown in Kagoshima, Japan, was used in this study. […] For antimicrobial assays, the spores of the isolate were incubated at 28 °C in tryptic soy broth (TSB) (Becton Dickinson, Sparks, USA). Escherichia coli strains JM109 and BL21(λDE3) were grown at 37 °C in Luria-Bertani broth supplemented with 100 μg/mL ampicillin for propagation.
A 12-well plate was used to assess the antimicrobial activity of LF, hydrolysate, LFcinB, and synthetic peptides. One milliliter of TSB containing each test substance was added to each well and then the spores of S. scabiei S58, prepared as described above, were added into each well at a final concentration of 2 × 10^5 spores/mL. The mixture was incubated at 28 °C for 72 h, and the absorbance was measured at 600 nm to monitor bacterial growth. To further confirm whether the antimicrobial activity is due to growth inhibition or bactericidal effect, 1 mL of TSB containing 2 ×10^3 spores and bLF (1 mg/mL) was incubated at 28 °C and directly cultured on STA after 5, 10, 15, 24, 48, and 72 h of incubation to count the emerging colonies. All assays were performed in duplicate and were repeated three times.

Data set [1] can be described thus: pH of the medium in which the substance was dissolved. The data set is classed as physicochemical. An excerpt:
On the contrary, in the assay of Trp alone at high concentrations, because Trp cannot bind to the cell surface by itself, only a few numbers could reach the membrane (Fig 8C). In summary, Trp must reach the cell membrane to exert its antimicrobial activity. We speculated that the change in the chemical structures and properties of Arg and Trp may affect their antimicrobial activity, that is, the ability to bind to the bacterial cell surface. Therefore, we used Arg and Trp derivatives, namely arginine hydrochloride, tryptophan methyl ester hydrochloride, and tryptophan ethyl ester hydrochloride, which are easily available. Intriguingly, arginine hydrochloride completely lost the antimicrobial activity against S. scabiei shown by Arg (Fig 7A and 7C). Sephai et al. (2017) reported that the antimicrobial activity of poly-arginine is influenced by pH; at mild acidic pH (5 and 6), its MIC values decreased. We measured the pH of the medium in which arginine or arginine hydrochloride was dissolved and found it to be 9.5 and 5.5, respectively. Streptomyces spp. can grow at pH values ranging from 4.0 to 11.5 [63]. Teichoic and lipoteichoic acids in gram-positive bacterial cell walls are esterified to D-Ala residues and at neutral or lower pH, the amino group of D-Ala (pKa 8.42) is protonated, conferring a neutral or positive charge to the cell walls. […]

Where [2] appears, read: S. scabiei S58 spores 2 × 10^5/mL, TSB, 28 °C, 72 h, absorbance 600 nm, probit analysis, mean ± SD, n = 3, N/A = no antimicrobial activity, read-out: Antimicrobial activity (IC50).
[3] abbreviates: spores 2 × 10^5/mL, TSB, 28 °C, 72 h, absorbance 600 nm.

What is called IC50 is the point on the concentration scale where inhibition reaches its midpoint. As to RRWQWR [RRWQWR], in the data set on Streptomyces scabiei S58 (72 h), the IC50 came out at 48 ± 9 µM. As usually defined, the inhibition is the relative decrease from the control value, in per cent. As to `N[C@@H](Cc1c[nH]c2ccccc12)C(=O)O` [Tryptophan], the inhibition at 40000 µM in the data set on Streptomyces scabiei S58 (Streptomyces scabiei, S58, read-out: Inhibition of growth of S. scabiei) came to 40%. For `CCOC(=O)[C@@H](N)Cc1c[nH]c2ccccc12.Cl` [Tryptophan ethyl ester hydrochloride], the IC50 with Streptomyces scabiei S58 (setting [2]) was found to be 1303 ± 4 µM. Further, in the data set on Streptomyces scabiei S58 (setting [3]), the “Antimicrobial activity, in words” value is “much higher activity than that of tryptophan”. On to `CC[C@H](C)[C@@H]1NC(=O)[C@H](CO)NC(=O)[C@@H]2CCCN2C(=O)[C@H](C)NC(=O)CNC(=O)[C@H](CC(C)C)NC(=O)[C@H](CCCCN)NC(=O)[C@H](CCCCN)NC(=O)[C@H](CCSC)NC(=O)[C@H](CCCNC(=N)N)NC(=O)[C@H](Cc2c[nH]c3ccccc23)NC(=O)[C@H](CCC(N)=O)NC(=O)[C@H](Cc2c[nH]c3ccccc23)NC(=O)[C@H](CCCNC(=N)N)NC(=O)[C@H](CCCNC(=N)N)NC(=O)[C@@H](NC(=O)[C@H](CCCCN)NC(=O)[C@@H](N)Cc2ccccc2)CSSC[C@@H](C(=O)N[C@H](C(=O)N[C@@H](CCCNC(=N)N)C(=O)N[C@@H](CCCNC(=N)N)C(=O)N[C@@H](C)C(=O)N[C@@H](Cc2ccccc2)C(=O)O)C(C)C)NC(=O)[C@H]([C@@H](C)O)NC1=O` [Bovine lactoferricin (LFcinB)], for which, in the data set with Streptomyces scabiei S58 (setting [3]), the “Concentration at which no growth of S. scabiei was observed” value stood at 3.2 µM. On to “RRRQRR [Synthetic peptide containing no Trp residue]”, for which the “Antimicrobial activity, in words” value with Streptomyces scabiei S58 (setting [3]) is “completely lost its activity”. For `N=C(N)NCCC[C@H](N)C(=O)O` [Arginine], the IC50 in the data set with Streptomyces scabiei S58 (Streptomyces scabiei, S58, 72 h, read-out: Antimicrobial activity (IC50)) was 14300 ± 1400 µM. Further, the “Concentration necessary to completely inhibit the growth of S. scabiei” value in the data set with Streptomyces scabiei S58 (setting [3]) worked out at 40 mM. For the same molecule, the “pH of the medium in which the substance was dissolved” value in data set [1] was determined as 9.5. On to “QQWWWQ [Synthetic peptide containing three Trp residues and no Arg residue]”, for which the “Antimicrobial activity, in words” value with Streptomyces scabiei S58 (setting [3]) was “complete loss of activity”. Turning to `COC(=O)[C@@H](N)Cc1c[nH]c2ccccc12.Cl` [Tryptophan methyl ester hydrochloride], the IC50 with Streptomyces scabiei S58 (setting [2]) worked out at 2860 ± 326 µM. The “Antimicrobial activity, in words” value in the data set on Streptomyces scabiei S58 (setting [3]) is “much higher activity than that of tryptophan”. Regarding `Cl.N=C(N)NCCC[C@H](N)C(=O)O` [Arginine hydrochloride], the “Antimicrobial activity, in words” value in the data set on Streptomyces scabiei S58 (setting [3]) is listed as “complete loss of activity”. In addition, in data set [1], the “pH of the medium in which the substance was dissolved” value was 5.5. In the data set on Streptomyces scabiei S58 (72 h), RRWWWR [RRWWWR] gave a half-inhibitory concentration (IC50) of 27 ± 2 µM.
